Data reported in ChEMBL document CHEMBL2413059, “Novel quinoxaline 1,4-di-N-oxide derivatives as new potential antichagasic agents” (Eur J Med Chem, 2013).

Legend:
[1] = Selectivity index, ratio of IC50 for mouse J774 cells to IC50 for epimastigote form of Trypanosoma cruzi Tulahuen 2; format: toxicity, cell-based; settings: read-out: Ratio IC50
Salmonella typhimurium [2] = experiment: Mutagenicity in Salmonella typhimurium TA98 at 0.3 to 25 ug/plate after 1 hr by Ames test in presence of S9 fraction; format: toxicity, organism-based; settings: salmonella enterica subsp. enterica serovar typhimurium, s9, 1 h
J774 = experiment: Cytotoxicity against mouse J774 cells assessed as cell viability after 48 hrs by MTT assay; format: cell-based; settings: J774, 48 h
Salmonella typhimurium [3] = experiment: Mutagenicity in Salmonella typhimurium TA98 at 0.3 to 25 ug/plate after 1 hr by Ames test in absence of S9 fraction; format: toxicity, organism-based; settings: salmonella enterica subsp. enterica serovar typhimurium
Trypanosoma cruzi [4] = experiment: Antichagasic activity against epimastigote form of Trypanosoma cruzi Tulahuen 2 assessed as parasite growth inhibition measured on day 5; format: functional, organism-based; settings: Tulahuen 2, 120 h
Trypanosoma cruzi [5] = experiment: Antichagasic activity against epimastigote form of Trypanosoma cruzi Tulahuen 2 assessed as parasite growth inhibition at 25 uM measured on day 5 relative to control; format: functional; settings: Tulahuen 2, 120 h, read-out: GI
Salmonella typhimurium [6] = experiment: Mutagenicity in Salmonella typhimurium TA98 at 0.06 to 12.5 ug/plate after 1 hr by Ames test in absence of S9 fraction; format: toxicity, organism-based; settings: salmonella enterica subsp. enterica serovar typhimurium
Salmonella typhimurium [7] = experiment: Mutagenicity in Salmonella typhimurium TA98 at 0.06 to 12.5 ug/plate after 1 hr by Ames test in presence of S9 fraction; format: toxicity, organism-based; settings: salmonella enterica subsp. enterica serovar typhimurium, s9, 1 h
Salmonella typhimurium [8] = experiment: Mutagenicity in Salmonella typhimurium TA98 at 0.06 to 5 ug/plate after 1 hr by Ames test in absence of S9 fraction; format: toxicity, organism-based; settings: salmonella enterica subsp. enterica serovar typhimurium
Salmonella typhimurium [9] = experiment: Mutagenicity in Salmonella typhimurium TA98 at 0.06 to 5 ug/plate after 1 hr by Ames test in presence of S9 fraction; format: toxicity, organism-based; settings: salmonella enterica subsp. enterica serovar typhimurium, s9, 1 h
Salmonella typhimurium [10] = experiment: Mutagenicity in Salmonella typhimurium TA98 at 0.012 to 1 ug/plate after 1 hr by Ames test in presence of S9 fraction; format: toxicity, organism-based; settings: salmonella enterica subsp. enterica serovar typhimurium, s9, 1 h
Salmonella typhimurium [11] = experiment: Mutagenicity in Salmonella typhimurium TA98 at 0.012 to 1 ug/plate after 1 hr by Ames test in absence of S9 fraction; format: toxicity, organism-based; settings: salmonella enterica subsp. enterica serovar typhimurium
Salmonella typhimurium [12] = experiment: Mutagenicity in Salmonella typhimurium TA98 at 1.2 X 10^-3 to 5 ug/plate after 1 hr by Ames test in presence of S9 fraction; format: toxicity, organism-based; settings: salmonella enterica subsp. enterica serovar typhimurium, s9, 1 h
Salmonella typhimurium [13] = experiment: Mutagenicity in Salmonella typhimurium TA98 at 1.2 X 10^-3 to 5 ug/plate after 1 hr by Ames test in absence of S9 fraction; format: toxicity, organism-based; settings: salmonella enterica subsp. enterica serovar typhimurium
Salmonella typhimurium [14] = experiment: Mutagenicity in Salmonella typhimurium TA98 at 0.61 to 50 ug/plate after 1 hr by Ames test in presence of S9 fraction; format: toxicity, organism-based; settings: salmonella enterica subsp. enterica serovar typhimurium, s9, 1 h
Salmonella typhimurium [15] = experiment: Mutagenicity in Salmonella typhimurium TA98 at 0.61 to 50 ug/plate after 1 hr by Ames test in absence of S9 fraction; format: toxicity, organism-based; settings: salmonella enterica subsp. enterica serovar typhimurium
Trypanosoma cruzi [16] = experiment: Ratio of nifurtimox IC50 to compound IC50 for epimastigote form of Trypanosoma cruzi Tulahuen 2; format: functional

Compound	IC50 (Trypanosoma cruzi [4]) [µM]	selectivity ratio [1]	IC50 (J774) [µM]	inhibition of growth at 25 µM (Trypanosoma cruzi [5]) [%]	Activity (Salmonella typhimurium [8])	Activity (Salmonella typhimurium [9])	also measured
CCOC(=O)c1c(C(F)(F)F)[n+]([O-])c2ccc(OC)cc2[n+]1[O-]	4.8	1.2	6	100			Activity (Salmonella typhimurium [2]): Toxic; Activity (Salmonella typhimurium [3]): Toxic
COC(=O)c1c(C(F)(F)F)[n+]([O-])c2cc(Cl)c(Cl)cc2[n+]1[O-]	10.8	< 0.1	0.5	100			Activity (Salmonella typhimurium [10]): Non-toxic; Activity (Salmonella typhimurium [11]): Non-toxic
COC(=O)c1c(C(F)(F)F)[n+]([O-])c2ccc(C)cc2[n+]1[O-]	13.7	0.3	4	96.1	Toxic	Toxic	
COC(=O)c1c(C(F)(F)F)[n+]([O-])c2ccc(C(F)(F)F)cc2[n+]1[O-]	5	0.8	4	100	Non-toxic	Non-toxic	
CCOC(=O)c1c(C(F)(F)F)[n+]([O-])c2ccc(C)cc2[n+]1[O-]	4.8	1.4	7	100			Activity (Salmonella typhimurium [2]): Non-toxic; Activity (Salmonella typhimurium [3]): Toxic
COC(=O)c1c(C(F)(F)F)[n+]([O-])c2cc(C)c(C)cc2[n+]1[O-]	5	0.8	4	91.6			Activity (Salmonella typhimurium [14]): Toxic; Activity (Salmonella typhimurium [15]): Toxic
CCOC(=O)c1c(C(F)(F)F)[n+]([O-])c2cc(C)c(C)cc2[n+]1[O-]	7.6	0.5	4	87.5			Activity (Salmonella typhimurium [6]): Toxic; Activity (Salmonella typhimurium [7]): Non-toxic
CC1CS(=O)(=O)CCN1/N=C/c1ccc([N+](=O)[O-])o1 (configuration not stated) [NIFURTIMOX]		41	316	100			

Further compounds by falling IC50 (Trypanosoma cruzi [4]), results first:

IC50 (Trypanosoma cruzi [4]) [µM]	Compound	selectivity ratio [1]	IC50 (J774) [µM]	inhibition of growth at 25 µM (Trypanosoma cruzi [5]) [%]	Activity (Salmonella typhimurium [8])	Activity (Salmonella typhimurium [9])	also measured
4.6	COC(=O)c1c(C(F)(F)F)[n+]([O-])c2ccc(OC)cc2[n+]1[O-]			86.6			Activity (Salmonella typhimurium [2]): Toxic; Activity (Salmonella typhimurium [3]): Toxic
4	CCOC(=O)c1c(C(F)(F)F)[n+]([O-])c2ccccc2[n+]1[O-]	1	4	100	Toxic	Non-toxic	
3.5	COC(=O)c1c(C(F)(F)F)[n+]([O-])c2ccc(F)cc2[n+]1[O-]	0.7	2.5	100			Activity (Salmonella typhimurium [2]): Non-toxic; Activity (Salmonella typhimurium [3]): Toxic
3.3	CCOC(=O)c1c(C(F)(F)F)[n+]([O-])c2ccc(F)cc2[n+]1[O-]	0.1	0.5	100	Toxic	Non-toxic	
2.9	CCOC(=O)c1c(C(F)(F)F)[n+]([O-])c2cc(Cl)c(Cl)cc2[n+]1[O-]			100	Non-toxic	Non-toxic	
2.6	COC(=O)c1c(C(F)(F)F)[n+]([O-])c2ccccc2[n+]1[O-]	7.3	19	100	Toxic	Toxic	
1.8	CCOC(=O)c1c(C(F)(F)F)[n+]([O-])c2ccc(Cl)cc2[n+]1[O-]			100	Toxic	Non-toxic	
1.8	COC(=O)c1c(C(F)(F)F)[n+]([O-])c2ccc(Cl)cc2[n+]1[O-]			100			Activity (Salmonella typhimurium [12]): Non-toxic; Activity (Salmonella typhimurium [13]): Toxic
1.5	COC(=O)c1c(C(F)(F)F)[n+]([O-])c2cc(F)c(F)cc2[n+]1[O-]			100	Toxic	Non-toxic	
1	CCOC(=O)c1c(C(F)(F)F)[n+]([O-])c2ccc(C(F)(F)F)cc2[n+]1[O-]	4.2	4.2	100			Activity (Salmonella typhimurium [6]): Non-toxic; Activity (Salmonella typhimurium [7]): Non-toxic
0.4	CCOC(=O)c1c(C(F)(F)F)[n+]([O-])c2cc(F)c(F)cc2[n+]1[O-]	10	4	100	Toxic	Non-toxic	Ratio IC50 (Trypanosoma cruzi [16]): 18
